Source: ChEMBL document CHEMBL1201862, “PubChem BioAssay data set” (2004)
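These data come from cells grown in 96-well plates and exposed to compound for 48 hours at five concentrations. Here, GI50 denotes the concentration required for 50% inhibition of growth.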 Activity calls are given as the source filed them. No stated cut-off is given here; in the data, active = GI50 up to about 1.1 µM and inactive = higher.

Tests used:
Test in all cases: inhibition of tumour cell growth, NCI panel, 48 h
RPMI-8226 = system: RPMI-8226
RXF 393 = system: RXF 393
M14 = system: M14
HOP-92 = system: HOP-92
IGROV-1 = system: IGROV-1
CAKI-1 = system: CAKI-1
Malme-3M = system: Malme-3M
HT-29 = system: HT-29
MCF7 = system: MCF7
SK-OV-3 = system: SK-OV-3
PC-3 = system: PC-3
BT-549 = system: BT-549
UACC-257 = system: UACC-257
U-251 = system: U-251
OVCAR-3 = system: OVCAR-3
KM12 = system: KM12
UO-31 = system: UO-31
HL-60 = system: HL-60
OVCAR-4 = system: OVCAR-4
HCC 2998 = system: HCC 2998

Measured: GI50

CC(C)(C)OCC1NC(=O)[C@@H]2Cc3c([nH]c4ccccc34)C(C3CCCCC3)N2C1=O (stereo not given in full)
inactive: RPMI-8226 19.8 µM | RXF 393 15.6 µM | M14 19.3 µM | HOP-92 22.1 µM | IGROV-1 23.2 µM | CAKI-1 17.7 µM | Malme-3M 21.1 µM | HT-29 18 µM | MCF7 31.6 µM | SK-OV-3 51.4 µM | PC-3 18.8 µM | BT-549 20.9 µM | UACC-257 18.4 µM | U-251 20.4 µM | OVCAR-3 11.6 µM | KM12 17.8 µM | UO-31 32.9 µM | HL-60 23 µM | OVCAR-4 23.9 µM

O=C(n1c(=O)n(-c2ccc(Cl)cc2)c(=O)n1C(=O)C(Cl)(Cl)Cl)C(Cl)(Cl)Cl
inactive: RPMI-8226 > 100 µM | HOP-92 > 100 µM | IGROV-1 > 100 µM | CAKI-1 > 100 µM | Malme-3M > 100 µM | HT-29 > 100 µM | MCF7 > 100 µM | SK-OV-3 > 100 µM | PC-3 > 100 µM | BT-549 66.5 µM | UACC-257 > 100 µM | U-251 > 100 µM | OVCAR-3 > 100 µM | HCC 2998 > 100 µM | KM12 82.8 µM | UO-31 31 µM | HL-60 > 100 µM | OVCAR-4 > 100 µM

COC(=O)[C@@H]1[C@@H](c2cccc(Cl)c2)[C@H](C(=O)OC)C2(C[C@@]1(C)O)NCCS2 (stereo not given in full)
inactive: RXF 393 49.4 µM | M14 39.1 µM | HOP-92 73.6 µM | IGROV-1 62.5 µM | CAKI-1 > 100 µM | Malme-3M > 100 µM | HT-29 44.2 µM | MCF7 56.1 µM | SK-OV-3 > 100 µM | PC-3 31.4 µM | BT-549 > 100 µM | UACC-257 87.7 µM | U-251 > 100 µM | OVCAR-3 31.3 µM | KM12 48.8 µM | UO-31 > 100 µM | OVCAR-4 46.7 µM

O=C1c2ccccc2-c2nc(-c3cccs3)cc3c2c1nc1ccccc13
inactive: RPMI-8226 23.2 µM | M14 3.27 µM | HOP-92 > 100 µM | IGROV-1 12.4 µM | CAKI-1 88.7 µM | Malme-3M 3.56 µM | HT-29 21.5 µM | MCF7 13 µM | SK-OV-3 > 100 µM | PC-3 12.6 µM | BT-549 22 µM | UACC-257 14.1 µM | U-251 18.6 µM | OVCAR-3 2.3 µM | HCC 2998 16.7 µM | KM12 11.4 µM | UO-31 22.7 µM | HL-60 5.42 µM | OVCAR-4 56 µM

Cc1ccc(-c2cnc(NC3OC(COC(=O)c4ccccc4)C(OC(=O)c4ccccc4)C(OC(=O)c4ccccc4)C3OC(=O)c3ccccc3)s2)cc1 (stereo not given)
inactive: RPMI-8226 > 100 µM | RXF 393 > 100 µM | M14 40.6 µM | HOP-92 20.4 µM | IGROV-1 > 100 µM | Malme-3M > 100 µM | HT-29 > 100 µM | MCF7 > 100 µM | SK-OV-3 > 100 µM | PC-3 > 100 µM | BT-549 > 100 µM | UACC-257 67.9 µM | U-251 > 100 µM | OVCAR-3 > 100 µM | UO-31 > 100 µM | OVCAR-4 68.1 µM

COc1ccc(C2NC(=S)Nc3c2c(=O)oc2c3ccc3ccccc32)cc1 (stereo not given)
inactive: RPMI-8226 47.6 µM | RXF 393 > 100 µM | M14 45.6 µM | HOP-92 41.8 µM | IGROV-1 > 100 µM | CAKI-1 58.3 µM | Malme-3M > 100 µM | HT-29 > 100 µM | MCF7 > 100 µM | SK-OV-3 > 100 µM | PC-3 54.7 µM | BT-549 45.7 µM | UACC-257 > 100 µM | U-251 40.6 µM | OVCAR-3 > 100 µM | KM12 58.3 µM | UO-31 77.1 µM | HL-60 92.3 µM | OVCAR-4 69.2 µM

COc1ccc(C2CC(c3cc4c(C)c(C(=O)c5ccccc5)oc4cc3O)=Nc3ccccc3S2)cc1OC (stereo not given)
inactive: RPMI-8226 > 91.6 µM | M14 > 57.1 µM | HOP-92 20.3 µM | IGROV-1 55.8 µM | Malme-3M 25.8 µM | HT-29 > 100 µM | MCF7 > 64 µM | PC-3 > 100 µM | BT-549 > 56.5 µM | UACC-257 > 100 µM | U-251 > 65 µM | HCC 2998 > 100 µM | UO-31 > 100 µM | HL-60 9.82 µM

C=CCOC1OC(CO[Si](C)(C)C(C)(C)C)C(OCc2ccccc2)C(OCc2ccccc2)C1OCc1ccccc1 (stereo not given)
inactive: RPMI-8226 > 100 µM | M14 68.1 µM | HOP-92 38.5 µM | IGROV-1 90.2 µM | CAKI-1 54.5 µM | Malme-3M 27.5 µM | HT-29 79.1 µM | MCF7 54.3 µM | SK-OV-3 > 100 µM | PC-3 58.9 µM | BT-549 65 µM | UACC-257 46.8 µM | U-251 29.2 µM | OVCAR-3 37.2 µM | KM12 > 100 µM | UO-31 46.1 µM | HL-60 > 100 µM | OVCAR-4 39 µM
